The record followed here is paper PMC6482291, “Anticonvulsant Activity of Pterostilbene in Zebrafish and Mouse Acute Seizure Tests” (Neurochemical Research, 2019).

For assay [1], the system named is PTZ-induced seizure-like behavior in zebrafish larvae. The assay can be described thus: Larval zebrafish PTZ seizure assay, locomotor activity tracking. The assay is classed as in vivo, Danio rerio. The following applies: 10 µM PTE, 2 h incubation, 20 mM PTZ; vs vehicle + PTZ. As to the method:
The locomotor activity of larvae was assessed as previously described. A single 117 hpf zebrafish larvae was placed in a 48-well plate (one larva per well) filled with 200 µl of vehicle or PTE solution (10 µM). Subsequently, larvae were incubated for 2 h, at 28.5 °C. Next, 100 µl of vehicle or PTZ was added to each well. Within 5 min, plates were positioned in an automated tracking device (ZebraBox, Viewpoint, Lyon, France) and larvae were tracked for 30 min, with a 5 min integration interval. All measurements were performed at the same daytime period. The […] distance (in millimeters) covered by each larva was recorded. Three independent experiments were done (n = 12/group) and the data were pooled together. […] The data were normalized against PTZ values.

The subject of assay [2] is 6 Hz-induced psychomotor seizures in mice. Briefly: 6 Hz psychomotor seizure test with supramaximal stimulation (32 and 44 mA). The assay is classed as in vivo. To be noted: Mus musculus, ip, 30 min before test. The text has this: Psychomotor (limbic) seizures were induced by transcorneal stimulation (6 Hz, 0.2 ms rectangular pulse, 3 s duration) generated by a Grass S48 stimulator coupled with a constant current unit CCU1 (both from Grass Technologies, West Warwick, RI, USA). Before stimulation a drop of ocular anesthetic, 1% tetracaine hydrochloride solution, was applied into the animals’ corneas. The electrodes were soaked in saline to ensure the good electrical contact. During the stimulation animals were restrained manually and immediately after the stimulation were placed in a Plexiglas box for observation of presence or absence of the psychomotor seizures. These seizures were characterized by immobilization or stun, often associated with rearing, forelimb clonus, twitching of vibrissae and elevated tail (Straub-tail), lasting at least 10 s from the stimulation. Lack of the above symptoms or their cessation within 10 s from the stimulation was considered as absence of seizure activity.
In the present study two 6 Hz-induced psychomotor seizure tests were performed: (1) the 6 Hz psychomotor seizure threshold test which employed stimulation at varied current intensities, and (2) the 6 Hz psychomotor seizure test with supramaximal stimulation at 32 mA and 44 mA. […]

Turning to `COc1cc(/C=C/c2ccc(O)cc2)cc(OC)c1` [PTE, trans-3,5-dimethoxy-4′-hydroxy-trans-stilbene], the “PTZ-induced locomotor activity in zebrafish larvae” value in assay [1] was “significantly reduced”. Besides, the ED50 in assay [2] (current intensity 32 mA) worked out at 506 ± 44.7 mg/kg; in assay [2] (current intensity 44 mA) it was 541 ± 41.5 mg/kg.
